Assay results as given in paper PMC12363342, “Investigating the N-terminal linker histone H1 subtypes as substrates for JmjC lysine demethylases” (RSC Chemical Biology, 2025).
Square brackets hold non-standard residues; d marks the D form. Ends that are not written are not given here. Lys(Me2) = CN(C)CCCC[C@H](N)C(=O)O

What was measured:
KDM4E = molecular target: T1, KDM4E (Homo sapiens, UniProt B2RXH2); assay: LC-MS demethylation activity assay, KDM4E; type: biochemical; conditions: room temperature; for mono-methylated product formed by KDM4E: standard conditions, 2 h; for KDM4E demethylation activity, D: 2 μM KDM, 10 μM H1/H3 peptide, 50 mM HEPES pH 7.5, 2 h, D (di-) initial methylation state
T1 construct: KDM4DM1-L359,[39]; KDM4EM1-R336,[30]; His6 (N); made in house; host or cells: Escherichia coli
T1 sequence (B2RXH2 1-336): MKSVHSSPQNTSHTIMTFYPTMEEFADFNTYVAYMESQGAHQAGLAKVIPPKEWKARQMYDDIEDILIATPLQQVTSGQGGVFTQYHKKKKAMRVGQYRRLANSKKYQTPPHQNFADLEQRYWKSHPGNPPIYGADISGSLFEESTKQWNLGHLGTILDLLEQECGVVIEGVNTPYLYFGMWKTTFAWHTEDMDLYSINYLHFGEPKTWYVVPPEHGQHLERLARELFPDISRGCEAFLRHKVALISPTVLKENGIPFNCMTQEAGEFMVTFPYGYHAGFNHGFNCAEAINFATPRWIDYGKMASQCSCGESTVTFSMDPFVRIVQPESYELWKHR
Description: (§1) The substrate specificity of JmjC KDMs for H1 was examined using liquid chromatography coupled to mass spectrometry (LC-MS) assays. The H1 peptides (10 μM) were incubated with the recombinant KDM (2 μM) in HEPES buffer at pH 7.5 at room temperature for 2 h, in the presence of ferrous(II) ammonium sulfate (FAS, 10 μM), sodium ascorbate (LAA, 100 μM) and 2OG (20 μM), and then quenched with formic acid. N^ε-Methylated H3K9 and H3K36 peptides were used as positive controls (Fig. 3–5 and Fig. S2–S6).[26]
(§2) The catalytic domains of the JmjC KDMs used were recombinantly produced as reported in either Escherichia coli (KDM4AM1-L359,[38] KDM4DM1-L359,[39] KDM4EM1-R336,[30] KDM6BD1141–E1590[40] and KDM3CL2157-L2500) or Sf9 cells (KDM3AT515–S1317, KDM3B882–1761, and KDM5DM1-D775) as N-terminally His6-tagged proteins. […] To produce proteins, DNA sequences encoding for KDM3A, KDM3B and KDM5D were inserted into the pFB-LIC vector, containing a TEV-protease cleavable N-terminal 6x-histidine tag via ligation independent cloning (LIC). The resultant plasmids were transformed into baculovirus and Sf9 cells ([…]) which were infected with the virus stock. The cells were grown at 27 °C and 90 rpm for 70 h. Cells were then harvested and suspended in 100 mL of lysis buffer (50 mM HEPES-NaOH, pH 7.4, 500 mM NaCl, 20 mM imidazole, 0.5 mM Tris (2-carboxyethyl)phosphine (TCEP), 5% (v/v) glycerol). […] The supernatant was loaded onto a Ni-NTA gravity column, washed with 10 column volume of lysis buffer and eluted using the elution buffer (50 mM HEPES-NaOH, pH 7.4, 500 mM NaCl, 300 mM imidazole, 0.5 mM TCEP, 5% (v/v) glycerol). The eluted protein was further purified using S200 gel filtration column chromatography (50 mM HEPES-NaOH, pH 7.4, 150 mM NaCl, 0.5 mM TCEP and 5% glycerol). Protein purity was analysed by SDS-PAGE and further confirmed by mass spectrometry. Selected fractions were pooled, concentrated and stored at −80 °C.
(§3) All reagents were purchased from Sigma Aldrich and were of the highest grade available. Ferrous(II) ammonium sulfate (FAS) solutions were prepared freshly by dissolving FAS to 400 mM in 20 mM HCl with subsequent dilution to 1 mM using deionized water. Fresh 2OG (10 mM) and LAA (50 mM) solutions were prepared by dissolving the solids in deionised water. All enzyme reactions were performed in 384-well plates (Greiner Bio-One) with a final reaction volume of 50 μL. Substrate mixtures contained 50 mM HEPES pH 7.5, LAA (100 μM), FAS (10 μM), 2OG (20 μM) and an H1 isoform peptide (10 μM). Reactions were initiated by the addition of enzyme to a final concentration of 2.0 μM. After 2 h, the reactions were stopped by the addition of 5 μL of 10% (v/v) LC-MS grade formic acid (Fisher Scientific) to a final concentration of 1% (v/v). Product analyses were performed by liquid chromatography-mass spectrometry (LC-MS) using an Agilent 1290 infinity II LC system equipped with an Agilent 1290 multisampler and an Agilent 1290 high speed pump and connected to an Agilent 6550 accurate mass iFunnel quadrupole time of flight (Q-TOF) mass spectrometer. 1 μL of the reaction mixture was injected onto a 1.8 μm × 2.1 × 50 mm ZORBAX RRHD Eclipse Plus C18 column (Agilent). Solvent A consisted of HPLC grade water containing 0.1% (v/v) formic acid and solvent B consisted of MeCN containing 0.1% (v/v) formic acid. Peptides were separated using a stepwise gradient (0 min – 95% solvent A, 1.0 min – 80% solvent A, 3.0 min – 45% solvent A, 4.0 min – 45% solvent A, 5.0 min – 0% solvent A, 6.0 min – 0% solvent A, 7.0 min – 95% solvent A). This was followed by a 3 min post-run with 95% solvent A to re-equilibrate the column. All flow rates were 0.2 mL min^−1. A blank injection of HPLC grade water was carried out between each sample injection.

KDM4D = molecular target: T2, KDM4D (Homo sapiens, UniProt Q6B0I6); assay: LC-MS demethylation activity assay, KDM4D; type: biochemical; conditions: 10 μM FAS, 100 μM LAA, 20 μM 2OG, room temperature; for substrate conversion (demethylation) by KDM4D: 2 μM KDM4D, 10 μM peptide, HEPES pH 7.5, 2 h; for KDM4D demethylation activity, D: 2 μM KDM, 10 μM H1/H3 peptide, 50 mM HEPES pH 7.5, 2 h, D (di-) initial methylation state
T2 construct: KDM4AM1-L359,[38]; KDM4DM1-L359,[39]; KDM4EM1-R336,[30]; His6 (N); made in house; host or cells: Escherichia coli
T2 sequence (Q6B0I6 1-359): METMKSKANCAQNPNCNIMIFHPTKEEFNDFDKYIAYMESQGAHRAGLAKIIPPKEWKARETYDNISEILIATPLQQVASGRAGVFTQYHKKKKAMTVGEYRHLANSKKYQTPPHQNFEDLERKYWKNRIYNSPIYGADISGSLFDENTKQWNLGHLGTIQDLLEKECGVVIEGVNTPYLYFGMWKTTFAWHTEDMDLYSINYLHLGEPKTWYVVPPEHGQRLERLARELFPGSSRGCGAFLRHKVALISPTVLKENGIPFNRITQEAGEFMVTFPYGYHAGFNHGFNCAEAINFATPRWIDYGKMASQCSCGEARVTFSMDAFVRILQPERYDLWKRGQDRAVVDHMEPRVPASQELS
Description: as §1, §2, §3

KDM3A = assay: LC-MS demethylation activity assay, KDM3A; type: biochemical, human; conditions: 2 μM KDM, 10 μM H1/H3 peptide, 10 μM FAS, 100 μM LAA, 20 μM 2OG, 50 mM HEPES pH 7.5, 2 h, room temperature, D (di-) initial methylation state
Description: as §1, §2, §3

KDM3B = assay: LC-MS demethylation activity assay, KDM3B; type: biochemical, human; conditions: 2 μM KDM, 10 μM H1/H3 peptide, 10 μM FAS, 100 μM LAA, 20 μM 2OG, 50 mM HEPES pH 7.5, 2 h, room temperature, D (di-) initial methylation state
Description: as §1, §2, §3

KDM6B = assay: LC-MS demethylation activity assay, KDM6B; type: biochemical, human; conditions: 2 μM KDM, 10 μM H1/H3 peptide, 10 μM FAS, 100 μM LAA, 20 μM 2OG, 50 mM HEPES pH 7.5, 2 h, room temperature, D (di-) initial methylation state
Description: as §1, §2, §3

KDM4A = assay: LC-MS demethylation activity assay, KDM4A; type: biochemical, human; conditions: 10 μM FAS, 100 μM LAA, 20 μM 2OG, room temperature; for KDM4A demethylation activity, D: 2 μM KDM, 10 μM H1/H3 peptide, 50 mM HEPES pH 7.5, 2 h, D (di-) initial methylation state
Description: as §1, §2, §3

KDM3C = assay: LC-MS demethylation activity assay, KDM3C; type: biochemical, human; conditions: 2 μM KDM, 10 μM H1/H3 peptide, 10 μM FAS, 100 μM LAA, 20 μM 2OG, 50 mM HEPES pH 7.5, 2 h, room temperature, D (di-) initial methylation state
Description: as §1, §2, §3

KDM5D = assay: LC-MS demethylation activity assay, KDM5D; type: biochemical, human; conditions: 2 μM KDM, 10 μM H1/H3 peptide, 10 μM FAS, 100 μM LAA, 20 μM 2OG, 50 mM HEPES pH 7.5, 2 h, room temperature, D (di-) initial methylation state
Description: as §1, §2, §3

[1] = 10 μM FAS, 100 μM LAA, 20 μM 2OG

Substance: KKKAAK[Lys(Me2)]AGGTPRKA [Peptide H1.2K26me2, 15-mer linker histone H1.2 residues 20-34 peptide, di-methylated K26]
- mono-methylated product formed by KDM4E (KDM4E; 2 μM KDM4E, 10 μM peptide): ~64%
- KDM4E demethylation activity, D (KDM4E; [1]): ● [green] (green dots indicate good demethylation (>50% conversion))
- substrate conversion (demethylation) by KDM4D (KDM4D): 20–35%
- KDM4D demethylation activity, D (KDM4D): ● [yellow] (yellow dots indicate moderate demethylation (<50% conversion))
- KDM3A demethylation activity, D (KDM3A): ● [red]
- KDM3B demethylation activity, D (KDM3B): ● [red]
- KDM6B demethylation activity, D (KDM6B): ● [red]
- KDM4A demethylation activity, D (KDM4A): ● [red]
- KDM3C demethylation activity, D (KDM3C): ● [red]
- KDM5D demethylation activity, D (KDM5D): ● [red]

Substance: KKKAR[Lys(Me2)]SAGAAKRKA [Peptide H1.4K25me2, 15-mer linker histone H1.4 residues 20-34 peptide, di-methylated K25]
- substrate conversion (demethylation) by KDM4E (KDM4E; 2 μM KDM4E, 10 μM peptide, 10 μM FAS, 100 μM LAA, 20 μM 2OG, HEPES pH 7.5, 2 h): ~50%
- KDM4E demethylation activity, D (KDM4E; [1]): ● [red]
- substrate conversion (demethylation) by KDM4D (KDM4D): > 40%
- KDM4D demethylation activity, D (KDM4D): ● [yellow] (yellow dots indicate moderate demethylation (<50% conversion))
- KDM3A demethylation activity, D (KDM3A): ● [red]
- KDM3B demethylation activity, D (KDM3B): ● [red]
- KDM6B demethylation activity, D (KDM6B): ● [red]
- substrate conversion (demethylation) by KDM4A (KDM4A; 2 μM KDM4A, 10 μM peptide, HEPES pH 7.5, 2 h): ~20%
- KDM4A demethylation activity, D (KDM4A): ● [black] (black dots indicate low-level demethylation (<10% conversion))
- KDM3C demethylation activity, D (KDM3C): ● [red]
- KDM5D demethylation activity, D (KDM5D): ● [red]

Substance: KKKAA[Lys(Me2)]KAGGTPRKA [Peptide H1.2K25me2, 15-mer linker histone H1.2 residues 20-34 peptide, di-methylated K25]
- mono-methylated product formed by KDM4E (KDM4E; 2 μM KDM4E, 10 μM peptide): ~64%
- KDM4E demethylation activity, D (KDM4E; [1]): ● [red]
- substrate conversion (demethylation) by KDM4D (KDM4D): 20–35%
- KDM4D demethylation activity, D (KDM4D): ● [red]
- KDM3A demethylation activity, D (KDM3A): ● [red]
- KDM3B demethylation activity, D (KDM3B): ● [red]
- KDM6B demethylation activity, D (KDM6B): ● [red]
- KDM4A demethylation activity, D (KDM4A): ● [black] (black dots indicate low-level demethylation (<10% conversion))
- KDM3C demethylation activity, D (KDM3C): ● [red]
- KDM5D demethylation activity, D (KDM5D): ● [red]
